Read-outs that look alike come from different tables or passages of the source.
Legend:
[1] = system: AsPC-1 (K-Ras G12D); experiment: Potency assay: pERK in AsPC-1 cells; type: cell-based; details: Homo sapiens
[2] = system: AsPC-1 (K-Ras G12D); experiment: CellTiter-Glo cell viability assay, AsPC-1; type: cell-based; details: Homo sapiens, ASPC1, 120 h, read-out: AsPC-1 Cell Viability IC50
Outline: (§1)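 Luminescent viability readout on day 5, plates first brought to room temperature for ~30 min; compounds added straight to plated RAS-mutant cells. Values expressed as percent of mean DMSO signal, curves fitted with a four-parameter logistic model.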

[3] = target: KRAS G13D (Homo sapiens, UniProt P01116+P62937, G13D); experiment: Ras-Raf disruption/FRET/MOA assay, KRAS G13D; type: biochemical; details: disruption of BRAF RBD binding, with Cyclophilin A; read-out: KRAS G13D FRET IC50
Outline: (§2)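 TR-FRET read-out of the K-Ras:RAF complex: decreased ratio relative to DMSO indicates compound-driven cyclophilin A ternary complex formation. Compound (top 30 µM, 3-fold, 10 points), 25 µM cyclophilin A, 12.5 nM GMPPNP-loaded His6-K-Ras and 50 nM GST-BRAF RBD were incubated 3 h at 25 °C (pH 7.3), followed by Eu/APC antibodies for 1.5 h.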

[4] = target: KRAS G12S (Homo sapiens, UniProt P01116+P62937, G12S); experiment: Ras-Raf disruption/FRET/MOA assay, KRAS G12S; type: biochemical; details: disruption of BRAF RBD binding, with Cyclophilin A; read-out: KRAS G12S FRET IC50
Outline: as §2

[5] = target: KRAS G13C (Homo sapiens, UniProt P01116+P62937, G13C); experiment: Ras-Raf disruption/FRET/MOA assay, KRAS G13C; type: biochemical; details: disruption of BRAF RBD binding, with Cyclophilin A; read-out: KRAS G13C FRET IC50
Outline: as §2

[6] = target: KRAS G12V (Homo sapiens, UniProt P01116+P62937, G12V); experiment: Ras-Raf disruption/FRET/MOA assay, KRAS G12V; type: biochemical; details: disruption of BRAF RBD binding, with Cyclophilin A; read-out: KRAS G12V FRET IC50
Outline: as §2

[7] = target: KRAS G12D (Homo sapiens, UniProt P01116+P62937, G12D); experiment: Ras-Raf disruption/FRET/MOA assay, KRAS G12D; type: biochemical; details: disruption of BRAF RBD binding, with Cyclophilin A; read-out: KRAS G12D FRET IC50
Outline: as §2

[8] = target: KRAS WT (Homo sapiens, UniProt P01116+P62937); experiment: Ras-Raf disruption/FRET/MOA assay, KRAS WT; type: biochemical; details: disruption of BRAF RBD binding, with Cyclophilin A; read-out: KRAS WT FRET IC50
Outline: as §2

[9] = target: KRAS G12C (Homo sapiens, UniProt P01116+P62937, G12C); experiment: Ras-Raf disruption/FRET/MOA assay, KRAS G12C; type: biochemical; details: disruption of BRAF RBD binding, with Cyclophilin A; read-out: KRAS G12C FRET IC50
Outline: as §2

[10] = target: KRAS Q61H (Homo sapiens, UniProt P01116+P62937, Q61H); experiment: Ras-Raf disruption/FRET/MOA assay, KRAS Q61H; type: biochemical; details: KRAS Q61H; read-out: KRAS Q61H FRET data IC50
Excerpt: (§3) Disruption of B-Raf Ras-Binding Domain (BRAF^RBD) Interaction with K-Ras by Compounds of the Invention (Also Called a FRET Assay or an MOA Assay)
(§4) Note—The following protocol describes a procedure for monitoring disruption of K-Ras G12C (GMP-PNP) binding to BRAF^RBD by a compound of the invention. This protocol may also be executed substituting other Ras proteins or nucleotides, such as K-Ras G12D and K-Ras G13D.
(§5) The purpose of this biochemical assay was to measure the ability of test compounds to facilitate ternary complex formation between a nucleotide-loaded K-Ras isoform and Cyclophilin A; the resulting ternary complex disrupts binding to a BRAF^RBD construct, inhibiting K-Ras signaling through a RAF effector.
(§6) In assay buffer containing 25 mM HEPES pH 7.3, 0.002% Tween20, 0.1% BSA, 100 mM NaCl and 5 mM MgCl2, tagless Cyclophilin A, His6-K-Ras-GMPPNP, and GST-BRAF^RBD were combined in a 384-well assay plate at final concentrations of 25 μM, 12.5 nM, and 50 nM, respectively. Compound was present in plate wells as a 10-point 3-fold dilution series starting at a final concentration of 30 μM. After incubation at 25° C. for 3 hours, a mixture of anti-His Eu-W1024 and anti-GST allophycocyanin was then added to assay sample wells at final concentrations of 10 nM and 50 nM, respectively, and the reaction incubated for an additional 1.5 hours. […] Compounds that facilitate disruption of a K-Ras:RAF complex were identified as those eliciting a decrease in the TR-FRET ratio relative to DMSO control wells.

[11] = target: T1, NRAS G12C (Homo sapiens, UniProt P01111+P62937, G12C); experiment: Ras-Raf disruption/FRET/MOA assay, NRAS G12C; type: biochemical
T1 construct: His6
Outline: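 Disruption of Ras:RAF binding was read as a drop in TR-FRET ratio versus DMSO controls. The buffer was 25 mM HEPES pH 7.3, 0.002% Tween20, 0.1% BSA, 100 mM NaCl and 5 mM MgCl2. Compounds were tested as a 10-point 3-fold dilution series from 30 μM. Detection used 10 nM anti-His Eu-W1024 and 50 nM anti-GST allophycocyanin.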

[12] = target: T2, NRAS WT (Homo sapiens, UniProt P01111+P62937); experiment: Ras-Raf disruption/FRET/MOA assay, NRAS WT; type: biochemical
T2 construct: His6
Excerpt: as §3, §4, §5, §6

[13] = target: T3, NRAS Q61K (Homo sapiens, UniProt P01111+P62937, Q61K); experiment: Ras-Raf disruption/FRET/MOA assay, NRAS Q61K; type: biochemical
T3 construct: His6
Excerpt: as §3, §4, §5, §6

[14] = target: T4, NRAS Q61R (Homo sapiens, UniProt P01111+P62937, Q61R); experiment: Ras-Raf disruption/FRET/MOA assay, NRAS Q61R; type: biochemical
T4 construct: His6
Excerpt: as §3, §4, §5, §6

[15] = system: NCI-H358 (K-Ras G12C); experiment: CellTiter-Glo cell viability assay, H358; type: cell-based; details: Homo sapiens, NCI-H358, 120 h, NCI-H358, K-Ras G12C, 5-day treatment; read-out: H358 Cell Viability IC50
Outline: as §1

[16] = NRAS G12C, read-out: NRAS G12C FRET data IC50
[17] = NRAS WT, read-out: NRAS WT FRET data IC50
[18] = NRAS Q61K, read-out: NRAS Q61K FRET data IC50
[19] = NRAS Q61R, read-out: NRAS Q61R FRET data IC50
[20] = ASPC1, AsPC-1 cells, K-Ras G12D, read-out: pERK EC50 (AsPC-1 KRAS G12D)
[21] = AsPC-1, K-Ras G12D, 5-day treatment

Sequence of KRAS G12C (P01116 1-169 isoform P01116-2 G12C limits assumed): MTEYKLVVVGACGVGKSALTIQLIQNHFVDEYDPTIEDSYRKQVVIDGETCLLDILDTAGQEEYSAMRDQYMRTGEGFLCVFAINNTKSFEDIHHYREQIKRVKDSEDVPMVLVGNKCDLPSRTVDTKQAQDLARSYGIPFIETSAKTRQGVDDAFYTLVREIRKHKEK
Sequence of KRAS G12C (P62937 whole entry): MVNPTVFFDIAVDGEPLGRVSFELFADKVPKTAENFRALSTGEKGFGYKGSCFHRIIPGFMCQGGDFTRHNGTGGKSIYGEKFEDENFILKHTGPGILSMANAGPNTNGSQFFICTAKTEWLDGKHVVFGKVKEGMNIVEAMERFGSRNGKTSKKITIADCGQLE
Sequence of KRAS G13D (P01116 1-169 isoform P01116-2 G13D limits assumed): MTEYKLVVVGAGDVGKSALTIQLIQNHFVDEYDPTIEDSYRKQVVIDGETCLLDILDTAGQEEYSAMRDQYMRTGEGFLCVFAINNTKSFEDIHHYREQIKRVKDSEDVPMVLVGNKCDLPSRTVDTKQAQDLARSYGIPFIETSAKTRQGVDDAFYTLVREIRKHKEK
Sequence of KRAS G13D (P62937 whole entry): as the sequence (P62937 whole entry) above
Sequence of KRAS G13C (P01116 1-169 isoform P01116-2 G13C limits assumed): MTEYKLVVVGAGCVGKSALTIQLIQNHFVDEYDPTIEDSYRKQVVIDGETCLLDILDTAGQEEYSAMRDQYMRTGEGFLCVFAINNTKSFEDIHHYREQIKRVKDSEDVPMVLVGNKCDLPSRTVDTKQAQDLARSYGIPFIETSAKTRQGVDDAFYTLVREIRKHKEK
Sequence of KRAS G13C (P62937 whole entry): as the sequence (P62937 whole entry) above
T4 sequence (P01111 whole entry Q61R): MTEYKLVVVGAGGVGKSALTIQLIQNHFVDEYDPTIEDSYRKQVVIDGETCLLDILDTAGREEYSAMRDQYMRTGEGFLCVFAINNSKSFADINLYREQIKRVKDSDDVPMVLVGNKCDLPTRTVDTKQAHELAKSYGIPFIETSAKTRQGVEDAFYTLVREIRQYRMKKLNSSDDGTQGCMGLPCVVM
T4 sequence (P62937 whole entry): as the sequence (P62937 whole entry) above
Sequence of KRAS G12V (P01116 1-169 isoform P01116-2 G12V limits assumed): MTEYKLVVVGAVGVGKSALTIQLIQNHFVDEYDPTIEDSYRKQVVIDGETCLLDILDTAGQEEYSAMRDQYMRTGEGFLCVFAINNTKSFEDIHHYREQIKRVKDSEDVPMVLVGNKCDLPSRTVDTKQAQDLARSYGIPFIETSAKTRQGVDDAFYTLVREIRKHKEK
Sequence of KRAS G12V (P62937 whole entry): as the sequence (P62937 whole entry) above
T3 sequence (P01111 whole entry Q61K): as the sequence (P01111 whole entry Q61R) above, with R61K counted along it
T3 sequence (P62937 whole entry): as the sequence (P62937 whole entry) above
T1 sequence (P01111 whole entry G12C): as the sequence (P01111 whole entry Q61R) above, with G12C, R61Q counted along it
T1 sequence (P62937 whole entry): as the sequence (P62937 whole entry) above
Sequence of KRAS Q61H (P01116 1-169 isoform P01116-2 Q61H limits assumed): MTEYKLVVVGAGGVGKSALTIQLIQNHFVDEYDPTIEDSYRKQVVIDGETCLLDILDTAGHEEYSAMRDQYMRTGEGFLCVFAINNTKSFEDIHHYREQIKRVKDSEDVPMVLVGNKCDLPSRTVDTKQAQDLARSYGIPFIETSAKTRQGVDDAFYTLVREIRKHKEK
Sequence of KRAS Q61H (P62937 whole entry, the tested form may be a part): as the sequence (P62937 whole entry) above
Sequence of KRAS G12S (P01116 1-169 isoform P01116-2 G12S limits assumed): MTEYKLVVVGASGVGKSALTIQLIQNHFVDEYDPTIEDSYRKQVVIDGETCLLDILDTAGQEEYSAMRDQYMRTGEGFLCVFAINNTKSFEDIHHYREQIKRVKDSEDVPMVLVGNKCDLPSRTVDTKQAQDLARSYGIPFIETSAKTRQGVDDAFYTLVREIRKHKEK
Sequence of KRAS G12S (P62937 whole entry): as the sequence (P62937 whole entry) above
Sequence of KRAS G12D (P01116 1-169 isoform P01116-2 G12D limits assumed): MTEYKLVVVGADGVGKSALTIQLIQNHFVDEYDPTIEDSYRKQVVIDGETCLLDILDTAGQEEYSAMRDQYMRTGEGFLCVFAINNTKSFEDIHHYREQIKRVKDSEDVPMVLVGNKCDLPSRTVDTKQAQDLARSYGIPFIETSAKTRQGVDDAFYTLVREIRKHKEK
Sequence of KRAS G12D (P62937 whole entry): as the sequence (P62937 whole entry) above
Sequence of KRAS WT (P01116 1-169 isoform P01116-2 limits assumed): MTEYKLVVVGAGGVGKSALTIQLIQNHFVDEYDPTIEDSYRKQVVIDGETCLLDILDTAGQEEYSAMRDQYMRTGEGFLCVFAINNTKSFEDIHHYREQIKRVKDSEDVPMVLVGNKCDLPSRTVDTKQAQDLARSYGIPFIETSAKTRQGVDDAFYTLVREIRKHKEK
Sequence of KRAS WT (P62937 whole entry): as the sequence (P62937 whole entry) above
T2 sequence (P01111 whole entry): as the sequence (P01111 whole entry Q61R) above, with R61Q counted along it
T2 sequence (P62937 whole entry): as the sequence (P62937 whole entry) above

CCn1c(-c2cnccc2COC)c2c3cc(ccc31)-c1cc(O)cc(c1)C[C@H](NC(=O)[C@H](C(C)C)N(C)C(=O)CN(C)C(=O)[C@H]1CN1S(C)(=O)=O)C(=O)N1CCC[C@H](N1)C(=O)OCC(C)(C)C2 (stereo partly drawn) [Example 36, (2R)—N-(2-(((2S)-1-(((6^3S,4S)-1^1-ethyl-2^5-hydroxy-1^2-(4-(methoxymethyl)pyridin-3-yl)-10,10-dimethyl-5,7-dioxo-6^1,6^2,6^3,6^4,6^5,6^6-hexahydro-1^1H-8-oxa-1(5,3)-indola-6(1,3)-pyridazina-2(1,3)-benzenacycloundecaphane-4-yl)amino)-3-methyl-1-oxobutan-2-yl)(methyl)amino)-2-oxoethyl)-N-methyl-1-(methylsulfonyl)aziridine-2-carboxamide]
EC50 ([1]; ASPC1, read-out: pERK EC50 (AsPC-1 KRAS G12D)): < 5000 nM
IC50 [2]: > 10000 nM
IC50 [3]: 100 to 1000 nM
IC50 [4]: 10 to 100 nM
IC50 [5]: 10 to 100 nM
IC50 [6]: 10 to 100 nM
IC50 [7]: 100 to 1000 nM
IC50 [8]: 10 to 100 nM
IC50 [9]: 10 to 100 nM
IC50 [10]: 10 to 100 nM
IC50 [11, 16]: 10 to 100 nM
IC50 [12, 17]: 100 to 1000 nM
IC50 [13, 18]: 100 to 1000 nM
IC50 [14, 19]: 100 to 1000 nM

CCn1c(-c2cccnc2[C@H](C)OC)c2c3cc(ccc31)-c1cccc(c1)C[C@H](NC(=O)[C@H](C1CCCC1)N1CC[C@]3(CCN(C(=O)[C@@H]4N[C@@H]4C4CC4)C3)C1=O)C(=O)N1CCC[C@H](N1)C(=O)OCC(C)(C)C2 [Compound 313]
EC50 [1, 20]: < 5000 nM
IC50 [15]: 100 to 1000 nM
IC50 [2, 21]: 10 to 100 nM
IC50 [10]: 100 to 1000 nM

CCn1c(-c2cccnc2[C@H](C)OC)c2c3cc(ccc31)-c1cc(O)cc(c1)C[C@H](NC(=O)C(C(C)C)N(C)C(=O)[C@@]1(C)CCCN1C(=O)[C@H]1CN1)C(=O)N1CCC[C@H](N1)C(=O)OCC(C)(C)C2 (stereo partly shown) [Compound 240]
EC50 [1, 20]: < 5000 nM
IC50 [2, 21]: 1000 to 10000 nM
IC50 ([11]; NRAS G12C FRET data IC50, NRAS G12C): 100 to 1000 nM
IC50 [12]: 1000 to 10000 nM
IC50 [13]: > 10000 nM
IC50 [14]: 1000 to 10000 nM

CCn1c(-c2cccnc2[C@H](C)OC)c2c3cc(ccc31)-c1cc(O)cc(c1)C[C@H](NC(=O)[C@H](C(C)C)N1CCCC3(CN(C(=O)[C@@H]4CN4)C3)C1=O)C(=O)N1CCC[C@H](N1)C(=O)OCC(C)(C)C2 [Compound 306]
EC50 [1, 20]: < 5000 nM
IC50 [2, 21]: 1000 to 10000 nM
IC50 [3]: 10 to 100 nM
IC50 [4]: 10 to 100 nM
IC50 [5]: 10 to 100 nM
IC50 [6]: 10 to 100 nM
IC50 [7]: 100 to 1000 nM
IC50 [8]: 10 to 100 nM
IC50 [9]: < 10 nM
IC50 [10]: 10 to 100 nM
IC50 [11, 16]: < 10 nM
IC50 [12, 17]: 10 to 100 nM
IC50 [13, 18]: 100 to 1000 nM
IC50 [14, 19]: 100 to 1000 nM

CCn1c(-c2cccnc2[C@H](C)OC)c2c3cc(ccc31)-c1cc(O)cc(c1)C[C@H](NC(=O)[C@H](C(C)C)N1CO[C@@]3(CCN(C(=O)[C@H]4CN4)C3)C1=O)C(=O)N1CCC[C@H](N1)C(=O)OCC(C)(C)C2 [Compound 232]
EC50 [1, 20]: < 5000 nM
IC50 [2, 21]: 1000 to 10000 nM
IC50 [3]: 100 to 1000 nM
IC50 [4]: 100 to 1000 nM
IC50 [5]: 10 to 100 nM
IC50 [6]: 100 to 1000 nM
IC50 [7]: 1000 to 10000 nM
IC50 [8]: 100 to 1000 nM
IC50 [9]: 10 to 100 nM
IC50 [10]: 10 to 100 nM
IC50 [11, 16]: 10 to 100 nM
IC50 [12, 17]: 100 to 1000 nM
IC50 [13, 18]: 100 to 1000 nM
IC50 [14, 19]: 100 to 1000 nM

From patent publication US11739074B2, “Ras inhibitors” (Revolution Medicines, Inc., priority 2019, dated 2023)
